“Also recorded” adds a separate entry of the source.
Legend:
[1] = Approximate solubility of technical grade active ingredients in the adjuvant solvents (shaker, iterative approach); details: for solubility in the three solvents, in words: Solvents I, II and III taken together
Protocol: Solubility studies were conducted using three materials to determine their ability to dissolve various biocide active ingredients: Solvent I-formula 1(a); Solvent II-formula 1(b); and Solvent III-formula 3(a). Active ingredients were chosen from three classes of biocides and primarily reflected difficult to dissolve actives. The following biocides were evaluated.
The approximate solubility of each technical grade active ingredient was determined in each of the solvents.
All examples were conducted on a 100 gram or 50 gram scale. The Dimethoate, 2,4-D, mesotrione and halosulfuron examples were conducted at 50 gram scale. All other examples were conducted on a 100 gram scale.
An amount of solvent was weighed into a 4 ounce jar (or 2 oz). An amount of active ingredient was weighed and added to the solvent in the jar. The jar was capped tightly and placed on a New Brunswick Scientific model C1 platform shaker. The samples were shaken at the 75% setting for 1 hour. During the mixing and after 1 hour each sample was examined and completeness of solubility noted. Using an iterative approach, an approximate solubility for each active ingredient in each of the solvents was determined. Each sample was allowed to sit undisturbed for 1 hour after mixing to determine if any crystallization would occur in those samples which dissolved.

[2] = cited from earlier work
[3] = Solvent I (formula 1(a)), % solids by weight, shaken 1 hour, minimum concentration tested 2.5%
[4] = Solvent II (formula 1(b)), % solids by weight, shaken 1 hour, minimum concentration tested 2.5%
[5] = Solvent III (formula 3(a)), % solids by weight, shaken 1 hour, minimum concentration tested 2.5%

| SMILES | solubility in the three solvents, in words [1] | approximate solubility range in Solvent I [1, 3] [%] | approximate solubility range in Solvent II [1, 4] [%] | approximate solubility range in Solvent I ([1]; 1 h) | approximate solubility range in Solvent II ([1]; 1 h) | approximate solubility range in Solvent III ([1]; 1 h) | further results |
| --- | --- | --- | --- | --- | --- | --- | --- |
| O=C(O)COc1ccc(Cl)cc1Cl [2,4-D] | did dissolve |  |  |  |  |  |  |
| COc1c(Cl)ccc(Cl)c1C(=O)O [Dicamba] | greatest solubility; also recorded: did dissolve | <10 |  |  |  |  |  |
| CC1(C)[C@H](C(=O)O[C@H](C#N)c2cccc(Oc3ccccc3)c2)[C@@H]1/C=C(\Cl)C(F)(F)F [Gamma cyhalothrin] | greatest solubility | >80 | >80 |  |  |  | approximate solubility range in Solvent III [1, 5]: >80% |
| CS(=O)(=O)NC(=O)c1cc(Oc2ccc(C(F)(F)F)cc2Cl)ccc1[N+](=O)[O-] [Fomesafen] |  |  |  | <2.5% | >2.5%; <10% | >5%; <10% |  |
| CS(=O)(=O)c1ccc(C(=O)C2C(=O)CCCC2=O)c([N+](=O)[O-])c1 [Mesotrione] |  | <2.5 | <2.5 |  |  |  | solubility in Solvent III, in words ([1]; Solvent III): soluble; solubility in acetonitrile and acetone ([2]; acetonitrile and acetone): limited solubility |
| COc1cc(OC)nc(NC(=O)NS(=O)(=O)c2c(C(=O)O)c(Cl)nn2C)n1 [Halosulfuron] |  |  |  | <2.5% | <2.5% | >2.5%; <5% |  |
| COCC(=O)N(c1c(C)cccc1C)C(C)C(=O)OC (stereo not drawn) [Metalaxyl] | greatest solubility |  |  |  |  |  |  |
| OC(Cn1cncn1)(c1ccc(F)cc1)c1ccccc1F (stereo not drawn) [Flutrifol] |  |  |  | >2.5%; <5% | >2.5%; <5% | >5%; <20% |  |
| O=C(O)CNCP(=O)(O)O [Glyphosate] | not very soluble | <2.5 | <2.5 |  |  |  | approximate solubility range in Solvent III [1, 5]: <2.5%; solubility in most solvents, including water ([2]; most solvents, including water): not soluble to any great extent |
| CCOC(=O)CCC(C)=O [Solvent III] |  |  |  |  |  |  | solvating properties compared among the three solvents ([1]; in all but one active ingredient, for those active ingredients which were soluble): best solvating properties |

— patent US20160044914A1, “BIOCIDE COMPOSITIONS, METHODS OF MANUFACTURE, AND METHODS OF USE” (SEGETIS, INC., priority 2013, published 2016)
